Laboratory results from paper PMC11403280, “Subclass IId bacteriocins targeting mannose phosphotransferase system—Structural diversity and implications for receptor interaction and antimicrobial activity” (PNAS Nexus, 2024).
Read-outs that look alike come from different tables or passages of the source. Ends that are not written are not given here.

Tests used:
[1] = biological target: Man-PTS membrane complex IICIID of L. garvieae (ManCD) (L. garvieae (endogenous in L. garvieae IBB3403))
[2] = tested on: Vero, HepG2, and Caco-2 cell lines; details: ref [36], [37], cited from earlier work
Source text: The use of bacteriocins as antibacterial agents offers a promising solution to some of the most challenging public health problems today, such as the emergence of difficult-to-treat infections caused by antibiotic-resistant pathogens ([29]) or the breakouts of foodborne diseases ([30]). Here, we have identified nine new bacteriocins of which five (MurA, MsnC, RhmB, AglA, and LcbC) could have potential in the treatment of infections caused by vancomycin-resistant Enterococcus faecium and Enterococcus faecalis strains ([31]), and four (MurA, MsnC, RhmB, and AglA) in the prevention of L. monocyto ...

[3] = tested on: Spontaneous Man-PTS mutants of L. lactis IL1403; assay: 2-fold serial dilutions sensitivity assay, Table S3; format: cell-based, Lactococcus lactis
Source text: (§1) To identify the individual amino acid residues of Man-PTS required for the sensitivity to the newly defined bacteriocins, and thus probably involved in their interaction with the receptor, spontaneous mutants of L. lactis IL1403 and L. garvieae IBB3403 with resistance to individual bacteriocins and preserved Man-PTS functionality were selected. Out of the nine new bacteriocins, five (GarAG3, RhmB, LcnC, EntG1, and MurA) were potent enough to produce resistant mutants in their presence. In total, 34 resistant L. lactis IL1403 mutants were obtained, including three selected in the presence of RhmB, 15 in the presence of EntG1, 2—LcnC, and 14—MurA; 38 resistant L. garvieae IBB3403 mutants were obtained in the presence of GarAG3 (Table S1). They were 4- to over 1,024-fold less sensitive to the bacteriocin used for the selection than the parental strain and carried, respectively, a combined total of 11 and 10 independent mutations in the ptnCD genes of L. lactis IL1403 and the manCD genes of L. garvieae IBB3403. Ten mutations in L. lactis led to amino acid substitutions in IIC (Gly62Val, Ala110Thr, Met120Ile, and Ala187Val) or IID (Gly126Ser, Ala127Thr, Ser214Leu, Gly221Cys, Tyr223Cys, and Gly229Val), and one led to the deletion of eight amino acids (221-228GlyAlaTyrLeuGluPheProLys) in IID.
(§2) The activity of peptides of interest against indicator strains and L. garvieae IBB3403- or L. lactis IL1403-derived strains was determined using the spot-on-lawn assay as described previously ([7]). Spontaneous bacteriocin-resistant mutants were selected by growing L. garvieae IBB3403 or L. lactis IL1403 in the presence of a bacteriocin in CDM ([43]) supplemented with 1% mannose (Man-CDM) as described previously ([7]). GarAG3-resistant L. garvieae IBB3403 mutants (LG1—LG32, LG34–LG38, and LG40) were selected at the bacteriocin concentration of 0.024 µg/mL. L. lactis IL1403 mutants resistant to EntG1 (LLG1–LLG3, LLG7–LLG9, LLG11, LLG12, LLG14, LLG19, LLG21, LLG25, LLG32, LLG46, and LLG50), RhmB (LLB2, LLB3, and LLB17), MurA (LLA1, LLA7, LLA8, LLA12, LLA19–LLA22, LLA24, and LLA26–LLA30), and LcnC (LLC1, LLC2) were selected at bacteriocin concentrations of 12.5µg/mL, 1.56µg/mL, 1.56 µg/mL, and 4 ng/mL, respectively. The sensitivity of the mutants was determined using 2-fold serial dilutions assay as described previously ([7]).
Table S3. Spontaneous mutants of L. lactis IL1403 resistant to RhmB, EntG1, LcnC, MurA, GarQ, BacSJ, ubericin K, and GarC
(§3) Sensitivity to Position in the cell
(§4) Mutant strain Mutation Amino acid change [fold-decreased relative to WT] membrane of affected
RhmB EntG1 LcnC MurA GarQ BacSJ Ubericin GarC Man-PTS amino acid(s)
mutations GlyAlaTyrLeuGluPheProLys
“>” substitution; “del”deletion

[4] = tested on: Spontaneous Man-PTS mutants of L. garvieae IBB3403; assay: 2-fold serial dilutions sensitivity assay, Table S4; format: cell-based, Lactococcus garvieae
Source text: as §1, §2
Table S4. Spontaneous mutants of L. garvieae IBB3403 resistant to GarAG3, GarA, GarB, GarC, GarQ, MurA, and ubericin K
as §3, §4
GarAG3 GarA GarB GarC GarQ MurA Ubericin Man-PTS amino acid(s)
LG9 manD: 800G>T ManD: Gly267Val 16x 0x 8x 2x 4x 0.5x 4x extracellular (region γ+)
TTGTTGGTAACG 262_265delAsnValValGly
GTAACGGTGTTG 265_268delGlyAsnGlyVal
LGA10 manD: 173C>A ManD: Ala58Asp 8x 2x 4x 4x 2x 2x 8x transmembrane (HP2a)
5 μl of each bacteriocin at a concentration of 1 mg/ml was used; “>” substitution; “del”deletion; “ins” insertion

GarQ_(Asn9Gly) (peptide)
minimum inhibitory concentration against L. garvieae IBB3403, fold decrease in activity relative to native GarQ [1]: > 512 fold

PedPA-1: subclass IIa pediocin-like bacteriocin (KYYGNGVTCGKHSCSVDWGKATTCIINNGAMAWATGGHQGNHKC; ends and bridges not checked; cysteine pairing not given here; UniProt P29430 19-62, looked up)
Cytotoxicity ([2]; up to 400 μg/mL): no cytotoxicity

GarQ_(Tyr11Leu) (peptide)
minimum inhibitory concentration against L. garvieae IBB3403, fold decrease in activity relative to native GarQ [1]: > 512 fold

EYHLMNGANGYLTRVNGKYVYRVTKDPVSAVFGVISNGWGSAGAGFGPQH [GarQ]
Sensitivity to [fold-decreased relative to WT] ([3]; LLA1 etc. (MurA-resistant), PtnC: Ala110Thr): 4 x | Sensitivity to [fold-decreased relative to WT] ([3]; LLB2,LLB3, PtnD: Gly126Ser): 0 x | Sensitivity to [fold-decreased relative to WT] ([3]; LLB17, PtnD: Ser214Leu): 256 x | Sensitivity to [fold-decreased relative to WT] ([3]; LLC1, LLC2, PtnC: Gly62Val): 64 x | Sensitivity to [fold-decreased relative to WT] ([3]; LLG1, LLG2, PtnD: 221-228del): 16 x | Sensitivity to [fold-decreased relative to WT] ([3]; LLG3, LLG9, LLG11, LLG32, LLG46, PtnD: Gly229Val): 16 x | Sensitivity to [fold-decreased relative to WT] ([3]; LLG7, LLG19, LLG21, PtnD: Ala127Thr): 8 x | Sensitivity to [fold-decreased relative to WT] ([3]; LLG8, PtnD: Gly221Cys): 16 x | Sensitivity to [fold-decreased relative to WT] ([3]; LLG12, LLG14, PtnC: Ala187Val): 8 x | Sensitivity to [fold-decreased relative to WT] ([3]; LLG25, PtnD: Tyr223Cys): 16 x | Sensitivity to [fold-decreased relative to WT] ([3]; LLG50, PtnC: Met120Ile): 4 x | Sensitivity to [fold-decreased relative to WT] ([3]; LLN1, PtnD: Pro123His): > 1024 x | Sensitivity to [fold-decreased relative to WT] ([3]; M6, PtnD: Arg200His): 8 x | Sensitivity to [fold-decreased relative to WT] ([3]; M16, PtnD: Leu83Phe): 0 x | Sensitivity to [fold-decreased relative to WT] ([3]; M19, PtnD: Phe226Ser): 8 x | Sensitivity to [fold-decreased relative to WT] ([3]; M30, PtnD: Leu197Phe): 16 x | Sensitivity to [fold-decreased relative to WT] ([4]; LG1 etc., ManD: Arg203Leu): 0 x | Sensitivity to [fold-decreased relative to WT] ([4]; LG2, ManC: Gly60Cys): 32 x | Sensitivity to [fold-decreased relative to WT] ([4]; LG6, ManD: Trp256Leu): 16 x | Sensitivity to [fold-decreased relative to WT] ([4]; LG9, ManD: Gly267Val): 4 x | Sensitivity to [fold-decreased relative to WT] ([4]; LG11, 13, 22, 28, ManD: Arg203Cys): 2 x | Sensitivity to [fold-decreased relative to WT] ([4]; LG12, ManD: 262_265delAsnValValGly): 4 x | Sensitivity to [fold-decreased relative to WT] ([4]; LG18, ManD: 265_268delGlyAsnGlyVal): 4 x | Sensitivity to [fold-decreased relative to WT] ([4]; LG23, 29, ManC: Gly188Val): 4 x | Sensitivity to [fold-decreased relative to WT] ([4]; LG32, ManD: Ser318Leu): 2 x | Sensitivity to [fold-decreased relative to WT] ([4]; LG36, ManC: Gly60Val): 128 x | Sensitivity to [fold-decreased relative to WT] ([4]; LGA2, ManC: Leu59Pro): 128 x | Sensitivity to [fold-decreased relative to WT] ([4]; LGA3, ManC: Gly52Val): 4 x | Sensitivity to [fold-decreased relative to WT] ([4]; LGA6, ManC:190_191insVal): 4 x | Sensitivity to [fold-decreased relative to WT] ([4]; LGA10, ManD: Ala58Asp): 2 x | Sensitivity to [fold-decreased relative to WT] ([4]; LGB6, ManD: Gln313Lys): 2 x | Sensitivity to [fold-decreased relative to WT] ([4]; LGC1, ManD: Met34Ile): 0 x | Sensitivity to [fold-decreased relative to WT] ([4]; LGC8, ManD: Tyr226Asp): 16 x | Sensitivity to [fold-decreased relative to WT] ([4]; LGC13, ManC: Ala106Val): 4 x | Sensitivity to [fold-decreased relative to WT] ([4]; LGC15, ManD: Ala133Val, Val315Met): 4 x | Sensitivity to [fold-decreased relative to WT] ([4]; LGN1, ManD: Gly301Val): > 1024 x | Sensitivity to [fold-decreased relative to WT] ([4]; LGN2, ManD: Ala133Val): 16 x | Sensitivity to [fold-decreased relative to WT] ([4]; LGN9, ManC: Ala102Val): 16 x | Sensitivity to [fold-decreased relative to WT] ([4]; PW202, ManC: Pro100His): > 1024 x | Sensitivity to [fold-decreased relative to WT] ([4]; PW203, ManD: Thr123Ile): > 1024 x | Sensitivity to [fold-decreased relative to WT] ([4]; PW204, ManD: Pro111Ser): > 1024 x | Cytotoxicity ([2]; highly purified, concentrations up to 1 mg/mL): no cytotoxicity
